{
  "source": "patent EP2797914B1",
  "about": "“NIFURATEL SULFOXIDE FOR USE IN THE TREATMENT OF BACTERIAL INFECTIONS” (Polichem SA, priority 2011, dated 2013)",
  "key": {"Atopobium vaginae": {"tested_on": "Atopobium vaginae", "experiment": "MIC by agar dilution method (CLSI M07-A8 / M11-A7); efficiency coefficient derived", "assay_type": "cell-based", "details": "Fannyhessea vaginae", "procedure": "(§1) The in vitro activity of nifuratel sulfoxide racemate, R-nifuratel sulfoxide and S-nifuratel sulfoxide was tested on a panel of bacteria, which included both Gram positive and Gram negative bacteria.\n(§2) The minimum inhibitory concentrations (MICs) of the compounds were determined by the broth microdilution method or by the agar dilution method, according to the National Committee for Clinical Laboratory Standards (CLSI) reference methods M07-A8 and M11-A7.\n(§3) The efficiency coefficient (EC) of nifuratel sulfoxide vs. nifuratel was calculated for each tested strain as follows: EC = relative oral bioavailability*[…] [formula]\n(§4) Where: • nifS = nifuratel sulfoxide • nif = nifuratel • EC = 1 is indicative of equivalent efficiency between nifuratel sulfoxide and nifuratel. • EC < 1 is indicative of a lower efficiency of nifuratel sulfoxide vs. nifuratel • EC > 1 is indicative of a higher efficiency of nifS vs. nif"}, "Gardnerella vaginalis": {"tested_on": "Gardnerella vaginalis", "experiment": "MIC by agar dilution method (CLSI M07-A8 / M11-A7); efficiency coefficient derived", "assay_type": "cell-based", "details": "Gardnerella vaginalis", "procedure": "as §1, §2, §3, §4"}, "[1]": {"tested_on": "Lactobacillus iners ATCC 55195", "experiment": "MIC by broth microdilution method (CLSI M07-A8 / M11-A7)", "assay_type": "cell-based", "details": "Lactobacillus iners, ATCC55195", "procedure": "The in vitro activity of nifuratel sulfoxide racemate, R-nifuratel sulfoxide and S-nifuratel sulfoxide was tested on a panel of bacteria, which included both Gram positive and Gram negative bacteria. The minimum inhibitory concentrations (MICs) of the compounds were determined by the broth microdilution method or by the agar dilution method, according to the National Committee for Clinical Laboratory Standards (CLSI) reference methods […]-A8 and M11-A7."}, "[2]": {"experiment": "Metabolic profiling of nifuratel in human urines by LC/MS/MS after oral administration", "assay_type": "in vivo", "details": "in vivo, po", "procedure": "As a matter of fact, metabolic profiling of nifuratel, following oral administration, was assessed in human urines by liquid chromatography/tandem mass spectrometry (LC/MS/MS).\nMore in details, urines of two subjects treated orally with nifuratel were collected at the following time-points: pre-dose, 0-4, 4-8, 8-12, 12-24, 24-36 and 36-48 h after treatment.\nNifuratel was not detected in any of the urine samples. […] Based on such a discovery, the applicant has performed both in vitro and in vivo tests in order to establish whether nifuratel sulfoxide is endowed with anti-bacterial activity."}, "[3]": {"tested_on": "Escherichia coli ATCC 11775", "experiment": "MIC by broth microdilution method (CLSI M07-A8 / M11-A7); efficiency coefficient derived", "assay_type": "cell-based", "details": "Escherichia coli, ATCC11775", "procedure": "as §1, §2, §3, §4"}, "[4]": {"tested_on": "Salmonella typhimurium ATCC 14028", "experiment": "MIC by broth microdilution method (CLSI M07-A8 / M11-A7); efficiency coefficient derived", "assay_type": "cell-based", "details": "Salmonella enterica", "procedure": "as §1, §2, §3, §4"}, "[5]": {"tested_on": "Staphylococcus aureus (MRSA)", "experiment": "MIC by broth microdilution method (CLSI M07-A8 / M11-A7); efficiency coefficient derived", "assay_type": "cell-based", "details": "Staphylococcus aureus, MRSA", "procedure": "as §1, §2, §3, §4"}, "[6]": {"tested_on": "Micrococcus pyogenes ATCC 11631", "experiment": "MIC by broth microdilution method (CLSI M07-A8 / M11-A7); efficiency coefficient derived", "assay_type": "cell-based", "details": "Staphylococcus aureus, ATCC11631", "procedure": "as §1, §2, §3, §4"}, "[7]": {"tested_on": "Proteus mirabilis ATCC 14153", "experiment": "MIC by broth microdilution method (CLSI M07-A8 / M11-A7); efficiency coefficient derived", "assay_type": "cell-based", "details": "Proteus mirabilis, ATCC14153", "procedure": "as §1, §2, §3, §4"}, "[8]": {"tested_on": "Neisseria gonorrhoeae ATCC 19424", "experiment": "MIC by broth microdilution method (CLSI M07-A8 / M11-A7); efficiency coefficient derived", "assay_type": "cell-based", "details": "Neisseria gonorrhoeae, ATCC19424", "procedure": "as §1, §2, §3, §4"}, "[9]": {"tested_on": "Shigella sonnei ATCC 11060", "experiment": "MIC by broth microdilution method (CLSI M07-A8 / M11-A7); efficiency coefficient derived", "assay_type": "cell-based", "details": "ATCC11060, read-out: MIC", "procedure": "as §1, §2, §3, §4"}, "[10]": {"tested_on": "Salmonella paratyphi B ATCC 10719", "experiment": "MIC by broth microdilution method (CLSI M07-A8 / M11-A7); efficiency coefficient derived", "assay_type": "cell-based", "details": "Salmonella enterica, read-out: MIC", "procedure": "as §1, §2, §3, §4"}, "[11]": {"tested_on": "Klebsiella pneumonia ATCC 10031", "experiment": "MIC by broth microdilution method (CLSI M07-A8 / M11-A7); efficiency coefficient derived", "assay_type": "cell-based", "details": "Klebsiella pneumoniae, ATCC10031", "procedure": "as §1, §2, §3, §4"}, "[12]": {"experiment": "Rat pharmacokinetics in plasma, non compartmental analysis", "assay_type": "in vivo, male rats", "details": "rat, in vivo", "procedure": "The pharmacokinetic profiles in plasma of nifuratel and nifuratel sulfoxide were tested after intravenous administration (2mg/kg) and oral gavage (15mg/kg) in male rats. […]"}},
  "data": [
    {"smiles": "CSCC1CN(/N=C/c2ccc([N+](=O)[O-])o2)C(=O)O1", "note": "(centres unmarked) [Nifuratel]", "values": [
      {"measurement": "MIC", "setting": "Atopobium vaginae; CCUG38953", "value": 0.125, "unit": "µg/mL"},
      {"measurement": "MIC", "setting": "Atopobium vaginae; CCUG39382", "value": 0.25, "unit": "µg/mL"},
      {"measurement": "MIC", "setting": "Atopobium vaginae; CCUG42099", "value": 0.5, "unit": "µg/mL"},
      {"measurement": "MIC", "setting": "Atopobium vaginae; CCUG43049", "value": 0.25, "unit": "µg/mL"},
      {"measurement": "MIC", "setting": "Atopobium vaginae; CCUG44061", "value": 0.5, "unit": "µg/mL"},
      {"measurement": "MIC", "setting": "Atopobium vaginae; CCUG44156", "value": 0.5, "unit": "µg/mL"},
      {"measurement": "MIC", "setting": "Atopobium vaginae; CCUG48515", "value": 1, "unit": "µg/mL"},
      {"measurement": "MIC", "setting": "Atopobium vaginae; CCUG55226", "value": 1, "unit": "µg/mL"},
      {"measurement": "MIC", "setting": "Atopobium vaginae; CCUG55227", "value": 0.25, "unit": "µg/mL"},
      {"measurement": "MIC", "setting": "Gardnerella vaginalis; ATCC14018, agar dilution, strain ATCC 14018", "value": 2, "unit": "µg/mL"},
      {"measurement": "MIC", "setting": "Gardnerella vaginalis; agar dilution, strain C2", "value": 8, "unit": "µg/mL"},
      {"measurement": "MIC", "setting": "Gardnerella vaginalis; agar dilution, strain D2", "value": 4, "unit": "µg/mL"},
      {"measurement": "MIC", "setting": "Gardnerella vaginalis; agar dilution, strain E2", "value": 2, "unit": "µg/mL"},
      {"measurement": "MIC", "setting": "Gardnerella vaginalis; agar dilution, strain G2", "value": 2, "unit": "µg/mL"},
      {"measurement": "MIC", "setting": "Gardnerella vaginalis; agar dilution, strain H2", "value": 1, "unit": "µg/mL"},
      {"measurement": "MIC", "setting": "Gardnerella vaginalis; agar dilution, strain J2", "value": 2, "unit": "µg/mL"},
      {"measurement": "MIC", "setting": "Gardnerella vaginalis; agar dilution, strain K2", "value": 4, "unit": "µg/mL"},
      {"measurement": "MIC", "setting": "[1]", "value": 16, "unit": "µg/mL"},
      {"measurement": "detection of parent compound in urine samples", "setting": "[2]", "value": "not detected"},
      {"measurement": "MIC", "setting": "[3]", "value": 1, "unit": "µg/mL"},
      {"measurement": "MIC", "setting": "[4]", "value": 4, "unit": "µg/mL"},
      {"measurement": "MIC", "setting": "[5]", "value": 2, "unit": "µg/mL"},
      {"measurement": "MIC", "setting": "[6]", "value": 1, "unit": "µg/mL"},
      {"measurement": "MIC", "setting": "[7]", "value": 8, "unit": "µg/mL"},
      {"measurement": "MIC", "setting": "[8]", "value": 0.25, "unit": "µg/mL"},
      {"measurement": "MIC", "setting": "[9]", "value": 1, "unit": "µg/mL"},
      {"measurement": "MIC", "setting": "[10]", "value": 2, "unit": "µg/mL"},
      {"measurement": "MIC", "setting": "[11]", "value": 2, "unit": "µg/mL"},
      {"measurement": "C0", "setting": "[12]; male, iv, 2 mg/kg", "value": 798, "unit": "ng/mL"},
      {"measurement": "T1/7", "setting": "[12]; male, iv, 2 mg/kg", "value": 24, "unit": "min"},
      {"measurement": "Tlast", "setting": "[12]; male, iv, 2 mg/kg", "value": 120, "unit": "min"},
      {"measurement": "concentration at 120 min", "setting": "[12]; male, iv, 2 mg/kg", "value": 5, "unit": "ng/mL"},
      {"measurement": "Cmax", "setting": "[12]; male, po, 15 mg/kg", "value": 8, "unit": "ng/mL"},
      {"measurement": "Tmax", "setting": "[12]; male, po, 15 mg/kg", "value": 30, "unit": "min"},
      {"measurement": "Vss", "setting": "[12]; iv, 2 mg/kg", "value": 4.5, "unit": "kg⁻¹"}
    ]}
  ]
}
